Assay results: PubChem BioAssay (NCI)
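96-well plates; 48 h exposure; 5 concentrations. Endpoints by linear interpolation between flanking doses. Not reached: highest tested concentration assigned. The concentration for 50% growth inhibition is given as GI50. Definition used: TGI = concentration required for complete inhibition of growth.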

Key:
Assay in all cases: DTP human tumour cell line panel, 48 h; in the data active = GI50 below about 0.43 µM; inactive = the rest
786-0 renal = tested on: 786-0 renal
A498 renal = tested on: A498 renal
A549 NSCLC = tested on: A549 NSCLC
ACHN renal = tested on: ACHN renal
BT-549 breast = tested on: BT-549 breast
CAKI-1 renal = tested on: CAKI-1 renal
CCRF-CEM leukemia = tested on: CCRF-CEM leukemia
COLO 205 colon = tested on: COLO 205 colon
DU-145 prostate = tested on: DU-145 prostate
EKVX NSCLC = tested on: EKVX NSCLC
HCC-2998 colon = tested on: HCC-2998 colon
HCT-116 colon = tested on: HCT-116 colon
HCT-15 colon = tested on: HCT-15 colon
HL-60(TB) leukemia = tested on: HL-60(TB) leukemia
HOP-62 NSCLC = tested on: HOP-62 NSCLC
HOP-92 NSCLC = tested on: HOP-92 NSCLC
HS 578T breast = tested on: HS 578T breast
HT29 colon = tested on: HT29 colon
IGROV1 ovarian = tested on: IGROV1 ovarian
K-562 leukemia = tested on: K-562 leukemia
KM12 colon = tested on: KM12 colon
LOX IMVI melanoma = tested on: LOX IMVI melanoma
M14 melanoma = tested on: M14 melanoma
MALME-3M melanoma = tested on: MALME-3M melanoma
MCF7 breast = tested on: MCF7 breast
MDA-MB-231 breast = tested on: MDA-MB-231 breast
MDA-MB-435 = tested on: MDA-MB-435
MDA-N = tested on: MDA-N
MOLT-4 leukemia = tested on: MOLT-4 leukemia
NCI-H226 lung = tested on: NCI-H226 lung
NCI-H23 lung = tested on: NCI-H23 lung
NCI-H460 lung = tested on: NCI-H460 lung
NCI-H522 lung = tested on: NCI-H522 lung
NCI/ADR-RES ovarian = tested on: NCI/ADR-RES ovarian
OVCAR-3 ovarian = tested on: OVCAR-3 ovarian
OVCAR-4 ovarian = tested on: OVCAR-4 ovarian
OVCAR-5 ovarian = tested on: OVCAR-5 ovarian
OVCAR-8 ovarian = tested on: OVCAR-8 ovarian
PC-3 prostate = tested on: PC-3 prostate
RPMI-8226 leukemia = tested on: RPMI-8226 leukemia
RXF 393 renal = tested on: RXF 393 renal
SF-268 CNS = tested on: SF-268 CNS
SF-295 CNS = tested on: SF-295 CNS
SF-539 CNS = tested on: SF-539 CNS
SK-MEL-2 melanoma = tested on: SK-MEL-2 melanoma
SK-MEL-28 melanoma = tested on: SK-MEL-28 melanoma
SK-MEL-5 melanoma = tested on: SK-MEL-5 melanoma
SK-OV-3 ovarian = tested on: SK-OV-3 ovarian
SN12C renal = tested on: SN12C renal
SNB-19 CNS = tested on: SNB-19 CNS
SNB-75 CNS = tested on: SNB-75 CNS
SR leukemia = tested on: SR leukemia
SW-620 colon = tested on: SW-620 colon
T-47D breast = tested on: T-47D breast
TK-10 renal = tested on: TK-10 renal
U251 CNS = tested on: U251 CNS
UACC-257 melanoma = tested on: UACC-257 melanoma
UACC-62 melanoma = tested on: UACC-62 melanoma
UO-31 renal = tested on: UO-31 renal
DLD-1 colon = tested on: DLD-1 colon
DMS 114 small cell lung = tested on: DMS 114 small cell lung
DMS 273 small cell lung = tested on: DMS 273 small cell lung
KM20L2 colon = tested on: KM20L2 colon
LXFL 529 NSCLC = tested on: LXFL 529 NSCLC
M19-MEL melanoma = tested on: M19-MEL melanoma

CC(C)Cn1cnc2c(NCC(C)O)nc3ccccc3c21 (stereo not given)
> 100 µM: TGI (786-0 renal) | TGI (A498 renal) | TGI (A549 NSCLC) | TGI (ACHN renal) | TGI (BT-549 breast) | TGI (CAKI-1 renal) | TGI (CCRF-CEM leukemia) | TGI (COLO 205 colon) | TGI (DU-145 prostate) | TGI (EKVX NSCLC) | TGI (HCC-2998 colon) | TGI (HCT-116 colon) | TGI (HCT-15 colon) | TGI (HL-60(TB) leukemia) | TGI (HOP-62 NSCLC) | TGI (HOP-92 NSCLC) | TGI (HS 578T breast) | TGI (HT29 colon) | TGI (IGROV1 ovarian) | TGI (K-562 leukemia) | TGI (KM12 colon) | TGI (LOX IMVI melanoma) | TGI (M14 melanoma) | TGI (MALME-3M melanoma) | TGI (MCF7 breast) | TGI (MDA-MB-231 breast) | TGI (MDA-MB-435) | TGI (MDA-N) | TGI (MOLT-4 leukemia) | TGI (NCI-H226 lung) | TGI (NCI-H23 lung) | TGI (NCI-H460 lung) | TGI (NCI-H522 lung) | TGI (NCI/ADR-RES ovarian) | TGI (OVCAR-3 ovarian) | TGI (OVCAR-4 ovarian) | TGI (OVCAR-5 ovarian) | TGI (OVCAR-8 ovarian) | TGI (PC-3 prostate) | TGI (RPMI-8226 leukemia) | TGI (RXF 393 renal) | TGI (SF-268 CNS) | TGI (SF-295 CNS) | TGI (SF-539 CNS) | TGI (SK-MEL-2 melanoma) | TGI (SK-MEL-28 melanoma) | TGI (SK-MEL-5 melanoma) | TGI (SK-OV-3 ovarian) | TGI (SN12C renal) | TGI (SNB-19 CNS) | TGI (SNB-75 CNS) | TGI (SR leukemia) | TGI (SW-620 colon) | TGI (T-47D breast) | TGI (TK-10 renal) | TGI (U251 CNS) | TGI (UACC-257 melanoma) | TGI (UACC-62 melanoma) | TGI (UO-31 renal)

CNS(=O)(=O)NN(C)S(=O)(=O)c1ccccc1
> 100 µM: TGI (786-0 renal) | TGI (A498 renal) | TGI (A549 NSCLC) | TGI (ACHN renal) | TGI (CAKI-1 renal) | TGI (CCRF-CEM leukemia) | TGI (COLO 205 colon) | TGI (DLD-1 colon) | TGI (DMS 114 small cell lung) | TGI (DMS 273 small cell lung) | TGI (EKVX NSCLC) | TGI (HCC-2998 colon) | TGI (HCT-116 colon) | TGI (HCT-15 colon) | TGI (HL-60(TB) leukemia) | TGI (HOP-62 NSCLC) | TGI (HT29 colon) | TGI (IGROV1 ovarian) | TGI (K-562 leukemia) | TGI (KM12 colon) | TGI (KM20L2 colon) | TGI (LOX IMVI melanoma) | TGI (LXFL 529 NSCLC) | TGI (M14 melanoma) | TGI (M19-MEL melanoma) | TGI (MALME-3M melanoma) | TGI (MOLT-4 leukemia) | TGI (NCI-H226 lung) | TGI (NCI-H23 lung) | TGI (NCI-H460 lung) | TGI (NCI-H522 lung) | TGI (OVCAR-4 ovarian) | TGI (OVCAR-8 ovarian) | TGI (RPMI-8226 leukemia) | TGI (RXF 393 renal) | TGI (SF-268 CNS) | TGI (SF-295 CNS) | TGI (SF-539 CNS) | TGI (SK-MEL-2 melanoma) | TGI (SK-MEL-5 melanoma) | TGI (SN12C renal) | TGI (SNB-19 CNS) | TGI (SNB-75 CNS) | TGI (SR leukemia) | TGI (SW-620 colon) | TGI (TK-10 renal) | TGI (U251 CNS) | TGI (UACC-257 melanoma) | TGI (UACC-62 melanoma) | TGI (UO-31 renal)

O=[N+]([O-])O.[Cu+2].[NH-]CC[NH-].[NH-]CC[NH-]
inactive: GI50 (786-0 renal) > 10 µM | GI50 (A498 renal) > 10 µM | GI50 (A549 NSCLC) > 10 µM | GI50 (ACHN renal) > 10 µM | GI50 (BT-549 breast) > 10 µM | GI50 (CAKI-1 renal) > 10 µM | GI50 (CCRF-CEM leukemia) > 10 µM | GI50 (COLO 205 colon) > 10 µM | GI50 (DU-145 prostate) > 10 µM | GI50 (EKVX NSCLC) > 10 µM | GI50 (HCC-2998 colon) > 10 µM | GI50 (HCT-116 colon) > 10 µM | GI50 (HCT-15 colon) > 10 µM | GI50 (HL-60(TB) leukemia) > 10 µM | GI50 (HOP-62 NSCLC) > 10 µM | GI50 (HOP-92 NSCLC) > 10 µM | GI50 (HS 578T breast) > 10 µM | GI50 (HT29 colon) > 10 µM | GI50 (IGROV1 ovarian) > 10 µM | GI50 (K-562 leukemia) > 10 µM | GI50 (KM12 colon) > 10 µM | GI50 (LOX IMVI melanoma) > 10 µM | GI50 (M14 melanoma) > 10 µM | GI50 (MALME-3M melanoma) > 10 µM | GI50 (MCF7 breast) > 10 µM | GI50 (MDA-MB-231 breast) > 10 µM | GI50 (MDA-MB-435) > 10 µM | GI50 (MDA-N) > 10 µM | GI50 (MOLT-4 leukemia) > 10 µM | GI50 (NCI-H226 lung) > 10 µM | GI50 (NCI-H23 lung) > 10 µM | GI50 (NCI-H460 lung) > 10 µM | GI50 (NCI-H522 lung) > 10 µM | GI50 (NCI/ADR-RES ovarian) > 10 µM | GI50 (OVCAR-3 ovarian) > 10 µM | GI50 (OVCAR-4 ovarian) > 10 µM | GI50 (OVCAR-5 ovarian) > 10 µM | GI50 (OVCAR-8 ovarian) > 10 µM | GI50 (PC-3 prostate) > 10 µM | GI50 (RPMI-8226 leukemia) > 10 µM | GI50 (RXF 393 renal) > 10 µM | GI50 (SF-268 CNS) > 10 µM | GI50 (SF-295 CNS) > 10 µM | GI50 (SF-539 CNS) > 10 µM | GI50 (SK-MEL-2 melanoma) > 10 µM | GI50 (SK-MEL-28 melanoma) > 10 µM | GI50 (SK-MEL-5 melanoma) > 10 µM | GI50 (SK-OV-3 ovarian) > 10 µM | GI50 (SN12C renal) > 10 µM | GI50 (SNB-19 CNS) > 10 µM | GI50 (SNB-75 CNS) > 10 µM | GI50 (SR leukemia) > 10 µM | GI50 (SW-620 colon) > 10 µM | GI50 (T-47D breast) > 10 µM | GI50 (U251 CNS) > 10 µM | GI50 (UACC-257 melanoma) > 10 µM | GI50 (UACC-62 melanoma) > 10 µM | GI50 (UO-31 renal) > 10 µM
> 10 µM: TGI (786-0 renal) | TGI (A498 renal) | TGI (A549 NSCLC) | TGI (ACHN renal) | TGI (BT-549 breast) | TGI (CAKI-1 renal) | TGI (CCRF-CEM leukemia) | TGI (COLO 205 colon) | TGI (DU-145 prostate) | TGI (EKVX NSCLC) | TGI (HCC-2998 colon) | TGI (HCT-116 colon) | TGI (HCT-15 colon) | TGI (HL-60(TB) leukemia) | TGI (HOP-62 NSCLC) | TGI (HOP-92 NSCLC) | TGI (HS 578T breast) | TGI (HT29 colon) | TGI (IGROV1 ovarian) | TGI (K-562 leukemia) | TGI (KM12 colon) | TGI (LOX IMVI melanoma) | TGI (M14 melanoma) | TGI (MALME-3M melanoma) | TGI (MCF7 breast) | TGI (MDA-MB-231 breast) | TGI (MDA-MB-435) | TGI (MDA-N) | TGI (MOLT-4 leukemia) | TGI (NCI-H226 lung) | TGI (NCI-H23 lung) | TGI (NCI-H460 lung) | TGI (NCI-H522 lung) | TGI (NCI/ADR-RES ovarian) | TGI (OVCAR-3 ovarian) | TGI (OVCAR-4 ovarian) | TGI (OVCAR-5 ovarian) | TGI (OVCAR-8 ovarian) | TGI (PC-3 prostate) | TGI (RPMI-8226 leukemia) | TGI (RXF 393 renal) | TGI (SF-268 CNS) | TGI (SF-295 CNS) | TGI (SF-539 CNS) | TGI (SK-MEL-2 melanoma) | TGI (SK-MEL-28 melanoma) | TGI (SK-MEL-5 melanoma) | TGI (SK-OV-3 ovarian) | TGI (SN12C renal) | TGI (SNB-19 CNS) | TGI (SNB-75 CNS) | TGI (SR leukemia) | TGI (SW-620 colon) | TGI (T-47D breast) | TGI (U251 CNS) | TGI (UACC-257 melanoma) | TGI (UACC-62 melanoma) | TGI (UO-31 renal)
